# Columns and labels:
# [1] = tested on: E. coli IH3080; experiment: Sensitization to rifampin: growth inhibition around wells on LB plates containing rifampin; assay type: cell-based, Escherichia coli
# Experimental: (§1) From an overnight-grown culture of IH3080 on LB agar, a suspension of approx. 10^8 cells/ml was prepared in 0.9% NaCl. Aliquots of this suspension were then pipetted on the agar plates and the plates were gently shaken to spread the suspension evenly on the entire surface of the plate. Thereafter, the unabsorbed part of the suspension was removed by using a Pasteur pipette. After the surface had dried, small wells (diameter, 2 mm) were drilled on the plates (five wells per plate) by using a sterile sharp-edged narrow metal tube, single-use pipette tip, and vacuum suction. An alternative method used a swab to spread the inoculum. Samples (4 μl and 10 μl) of the peptide solution in 0.9% NaCl (at concentrations of 1 μg/ml and 0.1 μg/ml) were then pipetted to the wells and the sample fluids were allowed to absorb. Controls included 0.9% NaCl solution without the compound to be tested. The plates were then incubated for 18 h at 37° C. whereafter the diameters of growth inhibition zones around each well were measured; the diameter of the well itself was not reduced. Finally, the diameters were converted to surface areas of growth inhibition (in square mm).
# [2] = tested on: E. coli IH3080; experiment: Growth inhibition around wells on LB agar plates; assay type: cell-based, Escherichia coli
# Experimental: Peptides synthesized in Example 1, all carrying at least two (2) but not more than three (3) positive charges, were studied for their ability to inhibit the growth of E. coli. This was tested employing LB agar (LB Agar Lennox, Difco, BD, Sparks, Md., U.S.A) plates. The indicator organism E. coli IH3080 (K1:O018) was an encapsulated strain originally isolated from a neonate suffering from meningitis (Vaara et al. 1984) and obtained from National Public Health Institute, Helsinki, Finland.
# as §1, with “Samples (4 μl and 10 μl) of the peptide solution in 0.9% NaCl (at concentrations of 1 μg/ml and 0.1 μg/ml) were then pipetted to the wells and the sample fluids were allowed to absorb.” left out
# [3] = tested on: A. baumannii ATCC 19606; experiment: Sensitization to rifampin: growth inhibition around wells on LB plates containing rifampin; assay type: cell-based, Acinetobacter baumannii; details: 4 μg
# [4] = tested on: Pseudomonas aeruginosa ATCC 27853; experiment: Growth inhibition around wells on LB agar plates; assay type: cell-based; details: Ps. aeruginosa ATCC 27853
# Experimental: as §1
# (§2) Direct antibacterial activity of sixteen NAB compounds against Acinetobacter baumannii ATCC 19606 and Pseudomonas aeruginosa ATCC 27853 was tested by using the susceptibility determination method described in Example 2. Five compounds (NAB7062, NAB734, NAB737, NAB739, and NAB740) had very notable activity against A. baumannii. […] The antibacterial activity of NAB739 and NAB740 were as strong as or even stronger than that of polymyxin B.
# [5] = tested on: Ps. aeruginosa ATCC 27853; experiment: Sensitization to rifampin: growth inhibition around wells on LB plates containing rifampin; assay type: cell-based, Pseudomonas aeruginosa; details: 4 μg
# [6] = tested on: Acinetobacter baumannii ATCC 19606; experiment: Growth inhibition around wells on LB agar plates; assay type: cell-based; details: A. baumannii ATCC 19606
# Experimental: as §1, with “Samples (4 μl and 10 μl) of the peptide solution in 0.9% NaCl (at concentrations of 1 μg/ml and 0.1 μg/ml) were then pipetted to the wells and the sample fluids were allowed to absorb.” left out
# as §2
# [7] = 4 μg of compound, rifampin 0 μg/ml
# [8] = 4 μg of compound, rifampin 0.1 μg/ml
# [9] = 4 μg of compound, rifampin 1.0 μg/ml
Substance,"growth inhibition around a well in the presence of rifampin [1, 7]","growth inhibition around a well in the presence of rifampin [1, 8]","growth inhibition around a well in the presence of rifampin [1, 9]",growth inhibition around a well ([2]; 4 μg of compound per well),growth inhibition around a well ([2]; 10 μg of compound per well),growth inhibition around a well in the presence of rifampin ([3]; rifampin 0 μg/ml),growth inhibition around a well in the presence of rifampin ([3]; rifampin 0.1 μg/ml),growth inhibition around a well in the presence of rifampin ([3]; rifampin 0.3 μg/ml),growth inhibition around a well ([4]; 4 μg),growth inhibition around a well ([4]; 10 μg),growth inhibition around a well in the presence of rifampin ([5]; rifampin 0 μg/ml),growth inhibition around a well in the presence of rifampin ([5]; rifampin 0.1 μg/ml),growth inhibition around a well in the presence of rifampin ([5]; rifampin 0.3 μg/ml),growth inhibition around a well ([6]; 4 μg),growth inhibition around a well ([6]; 10 μg),"growth inhibition around a well in the presence of rifampin ([1]; 10 μg of compound, rifampin 1.0 μg/ml)"
MHA-Abu-Thr-Abu-cy[Dab-Dab-DPhe-Leu-Dab-Dab-Thr-] [NAB 707],5 square millimeters,87 square millimeters,113 square millimeters,5 square millimeters,7 square millimeters,–,–,–,–,–,–,–,–,–,–,–
OA-Thr-Abu-cy[Dab-Dab-DLeu-Leu-Dab-Dab-Thr-] [NAB 718],0 square millimeters,13 square millimeters,133 square millimeters,0 square millimeters,0 square millimeters,0 square millimeters,0 square millimeters,38 square millimeters,0 square millimeters,0 square millimeters,0 square millimeters,0 square millimeters,0 square millimeters,0 square millimeters,0 square millimeters,–
Polymyxin B heptapeptide [reference compound],0 square millimeters,0 square millimeters,38 square millimeters,0 square millimeters,0 square millimeters,–,–,–,–,–,–,–,–,–,–,–
OA-Thr-Thr-DSer-cy[Dab-Dab-DPhe-Leu-Dab-Dab-Thr-] [NAB 748],113 square millimeters,154 square millimeters,154 square millimeters,113 square millimeters,156 square millimeters,20 square millimeters,133 square millimeters,201 square millimeters,20 square millimeters,50 square millimeters,20 square millimeters,13 square millimeters,20 square millimeters,20 square millimeters,50 square millimeters,–
OA-Thr-DThr-cy[Dab-Dab-DPhe-Thr-Dab-Dab-Thr-] [NAB 737],133 square millimeters,177 square millimeters,201 square millimeters,–,–,38 square millimeters,201 square millimeters,283 square millimeters,0 square millimeters,28 square millimeters,0 square millimeters,–,20 square millimeters,38 square millimeters,79 square millimeters,–
OA-Thr-Abu-cy[Dab-Abu-DPhe-Leu-Dab-Dab-Thr-] [NAB 710],0 square millimeters,7 square millimeters,13 square millimeters,0 square millimeters,7 square millimeters,–,–,–,–,–,–,–,–,–,–,–
OA-Thr-Abu-cy[Dab-Lys-DPhe-Leu-Dab-Dab-Thr-] [NAB 731],0 square millimeters,0 square millimeters,5 square millimeters,0 square millimeters,0 square millimeters,–,–,–,–,–,–,–,–,–,–,22 square millimeters
OA-Thr-Dab-cy[Dab-Abu-DPhe-Leu-Dab-Dab-Thr-] [NAB 715],0 square millimeters,0 square millimeters,33 square millimeters,0 square millimeters,0 square millimeters,–,–,–,–,–,–,–,–,–,–,–
MHA-Dab-Thr-Dab-cy[Dab-Dab-DPhe-Leu-Abu-Abu-Thr-] [NAB 721],0 square millimeters,13 square millimeters,28 square millimeters,0 square millimeters,0 square millimeters,–,–,–,–,–,–,–,–,–,–,–
OA-Thr-Abu-cy[Dab-Dab-DPhe-Leu-Dab-Abu-Thr-] [NAB 709],0 square millimeters,0 square millimeters,13 square millimeters,0 square millimeters,0 square millimeters,–,–,–,–,–,–,–,–,–,–,–
OA-Abu-cy[Dab-Dab-DPhe-Leu-Dab-Dab-Thr-] [NAB 713],0 square millimeters,20 square millimeters,38 square millimeters,0 square millimeters,0 square millimeters,–,–,–,–,–,–,–,–,–,–,–
MHA-Thr-Abu-cy[Dab-Dab-DPhe-Leu-Dab-Dab-Thr-] [NAB 706],5 square millimeters,79 square millimeters,133 square millimeters,5 square millimeters,7 square millimeters,–,–,–,–,–,–,–,–,–,–,–
Deacylpolymyxin B [reference compound],57 square millimeters,79 square millimeters,127 square millimeters,–,113 square millimeters,–,–,–,–,–,–,–,–,–,–,–
Deacylcolistin [reference compound],79 square millimeters,87 square millimeters,127 square millimeters,–,95 square millimeters,–,–,–,–,–,–,–,–,–,–,–
OA-DAla-DAla-cy[Dab-Dab-DPhe-Leu-Dab-Dab-Thr-] [NAB 733],0 square millimeters,95 square millimeters,113 square millimeters,0 square millimeters,0 square millimeters,–,–,–,–,–,–,–,–,–,–,–
